Measured values as given in patent US10710951B2, “Pharmaceutical composition containing verbenone derivative for treating or preventing neurodegenerative disease” (KOREA UNIVERSITY RESEARCH AND BUSINESS FOUNDATION, priority 2012, dated 2020).

What was measured:
cortical neurons [1] = assay: Oxygen-glucose deprivation (OGD)/reoxygenation neuronal injury, LDH release; type: cell-based; details: rat cortical neurons, FIG. 1
Procedure: (§1) Cortical neurons (5×10^5 cells/ml) were isolated from fetal SD rats (16-17 days). Specifically, brain cortex was cut, and cells were isolated from the tissue by repeated trituration using a Pasteur pipette in buffer (Hanks' Balanced Salt Solution, HBSS). The cell suspension (1.8×10^3 cells/mm^2) was dispensed on a plate pretreated with poly-D-lysine ([…])/laminin ([…]). The cells were placed in 10% FBS-containing NBM medium, and incubated in a […]/5% CO2 atmosphere at 37° C. After 15-16 days of the incubation, the experiment was performed.
In order to induce hypoxic-ischemic symptoms in vitro, the incubated cells were placed in an anoxic chamber (partial oxygen pressure <2 mmHg). The cells were incubated glucose-free DMEM while being bubbled with an anaerobic gas mixture (95% N2 and 5% CO2) for 30 minutes to remove residual oxygen, and were incubated at 37° C. for 90 minutes for oxygen deprivation. After 90 minutes, the exposed solution was replaced with 25 mmol/L glucose-containing DMEM medium to stop the OGD reaction, and the cells were restored to normal oxygen conditions. Control cells not exposed to OGD were incubated in glucose (25 mmol/L)-containing DMEM medium provided with an aerobic gas mixture (95% air and 5% CO2). The cells were treated with each sample 30 minutes before, and during the entire period of OGD/re-oxygenation.
(§2) In order to measure cell injury or cell death, the amount of LDH released into the medium was measured using a cell viability measurement kit (Sigma-Aldrich, St. Louis, Mo.). Cell viability was expressed as the percentage of LDH relative to the total cellular LDH level measured in sister cultures lysed by freezing-thawing after the experiment.

cortical neurons [2] = assay: NMDA-induced excitotoxicity, LDH release; type: cell-based, SD rats; design: dose or concentration left out as unconfirmed; details: cultured cortical neuronal cells; sample 30 min before NMDA; lower than MK-801; FIG. 2
Procedure: as §1
After incubation on the plate for 15-18 days, the cortical neurons were exposed to NMDA ([…]) in a solution (Mg^2+-free Earle's balanced salt solution (EBSS); containing 1.8 mM CaCl2 and 10 mM glycine) for 10 minutes. After exposure, the cells were washed with MgSO4-containing EBSS solution, and incubated in 25 mmol/L glucose-containing DMEM medium in a 5% CO2 incubator at 37° C. 30 Minutes before treatment with NMDA, the cells were treated with each sample […].
as §2

cortical neurons [3] = assay: Intracellular levels (DCF fluorescence) of reactive oxygen species after OGD/reoxygenation; type: cell-based, SD rats; details: FIG. 3
Procedure: In order to examine the direct radical scavenging activities of the samples, at 1 hour after reoxygenation, the cells were stained with the fluorescent probe H2DCF-DA (2,7-dihydroichlorofluorescein diacetate) that is widely used to measure intracellular oxidative stress. After 2 hours, the cells were washed in EBSS buffer (containing 25 mM glucose, 1.8 mM CaCal2, 1.2 mM MgSO4 and 2.5 mM probenecid (pH7.4)), and the fluorescence of DCF was measured with a fluorescence microplate reader (SpectraMax GeminiEM; Ex=485 nm, Em=530 nm) or a fluorescence microscope (DM IL HC Fluo, Leica, Wetzlar, Germany) equipped with a digital camera (DFC420C, Leica, Wetzlar Germany). The fluorescence intensity was compensated with autofluorescence (i.e., the fluorescence of cells not loaded with H2DCF-DA).

[4] = DPPH assay (ability to scavenge nitrogen radicals); design: DPPH assay % inhibition: concentration or dose not given beside the values
Procedure: The samples were mixed with DPPH (23.6 μg/ml, in ethanol), and incubated in dark at 37° C. for 30 minutes. The DPPH absorbance reduced by each sample was measured at 517 nm. Vitamin C (Sigma-Aldrich, St. Louis, Mo.) was used as a control, and the DPPH inhibition value (%) was calculated using the following equation: Scavenging activity (%)=[Absmax(Vit.C)−Abssample]/[Absmax(Vit.C)−Absmin(Vit.C)]×100. Equation 1
(§3) The antioxidant activities of the verbenone derivatives of the present invention were measured by the following two different chemical reactions: (1) a single electron transfer-based assay that is a […] [DPPH] assay that measures a decrease in DPPH acting as a free radical generator and a termination probe; and (2) a hydrogen atom transfer assay that is an oxygen radical absorbance capacity [[…]] assay that measures the competitive reaction kinetics of a peroxyl radical generator (AAPH; 2,2′-azobis-(2-methylpropionamide)-dihydrochloride) and each sample acting as an antioxidant for oxidizable fluorescent probe (fluorescein).

[5] = Oxygen radical absorbance capacity (ORAC) assay; design: ORAC assay TE25 (trolox equivalents): dose or concentration left out as unconfirmed; details: for ORAC assay TE25 (trolox equivalents): net AUC sample / net AUC trolox
Procedure: An ORAC assay was performed as disclosed in the literature (Huang, D. et al., J. Agric. Food Chem., 53, 1841-56, 2005).
AAPH (60 mM) and fluorescein (50 nM) were prepared in buffer (75 mM phosphate buffer, pH7.4) without a sample or a sample or a standard (Trolox). Each of the samples and the standard was suspended in a solution of 7% RMCD (randomly methylated beta-cyclodextrin) in 50% acetone. RMCD was used to increase the solubility of oil-soluble samples. Each sample was sufficiently mixed with fluorescein solution (66 nM, 190 μl) by shaking for 5 seconds. After incubation at 37° C. for 10 minutes, AAPH (500 mM, 30 μl) was quickly added to each sample, and a decrease in the fluorescence was measured using a fluorescence microplate reader (Ex=485 nm, Em=530 nm; SpectraMax GeminiEM, Molecular Devices, Sunnyvale, Calif.) at 37° C. at 5-min intervals for 9 hours. To quantify the activity of scavenging peroxyl radicals, AUC (area-under-the-curve) was calculated according to the following equation 2, and net AUC was calculated according to the following equation 3, and the TE (trolox equivalents) of each sample was calculated according to the following equation 4 based on a standard curve of net AUC plotted according to an increase in trolox concentration. AUC=(0.5+f1/f0+f2/f0+f3/f0+ . . . +fn−2/f0+fn−1/f0+fn/f0)×5, Equation 2
wherein f0 is the first fluorescence at 0 min and time I. Net AUC=AUCsample−AUCblank. Equation 3 TE(trolox equivalents) of each sample=[netAUCsample […]]/[net AUCtrolox […]]. Equation 4
as §3

focal ischemia = details: rats and gerbils; literature; cited from earlier work

Structure (SMILES): CC1(C)[C@@H]2C[C@H]1C(C=Cc1ccc(O)c(O)c1)=CC2=O [Compound 3c, (1S,5R)-4-(3,4-dihydroxystyryl)-6,6-dimethylbicyclo[3.1.1]hept-3-en-2-one]
- neuronal injury induced by OGD (LDH release) (cortical neurons [1]; OGD/reoxygenation, comparable to MK801): significantly reduced neuronal injury
- cytotoxicity (cortical neurons [1]): showed no cytotoxicity
- NMDA-induced neuronal injury (cortical neurons [2]): significantly reduced NMDA-induced neuronal injury
- OGD-induced intracellular oxidative stress (DCF fluorescence) (cortical neurons [3]): reduced OGD-induced intracellular oxidative stress
- DPPH scavenging activity (in words) ([4]; compared to vitamin C at the same concentration): stronger scavenging activity compared to vitamin C
- DPPH assay % inhibition ([4]; relative to vitamin C (Equation 1)): 91.62 ± 3.27%
- ORAC assay Net AUC [5]: 131.29 ± 11.97
- ORAC assay TE25 (trolox equivalents) [5]: 3.11 ± 0.11

Structure (SMILES): CC1(C)[C@@H]2C[C@H]1C(C=Cc1ccc(-n3cccc3)cc1)=CC2=O [Compound 4e, (1S,5R)-4-(4-(1H-pyrrol-1-yl)styryl)-6,6-dimethylbicyclo[3.1.1]hept-3-en-2-one]
- ORAC assay Net AUC [5]: 98.31 ± 0.48
- peroxyl radical scavenging activity in ORAC assay (in words) ([5]; compared to trolox): strong peroxyl radical scavenging activities compared to trolox
- ORAC assay TE25 (trolox equivalents) [5]: 2.19 ± 0.01
- melting point: 146 to 148 °C

Structure (SMILES): C[C@]12N[C@H](Cc3ccccc31)c1ccccc12 [MK-801]
- time of administration after onset of focal ischemia giving a neuron protection effect (focal ischemia): ≤ 1 h
